Test system: MV-4-11 cells
Experiment: Gene expression microarray analysis (Affymetrix PrimeView) and GSEA
Format: cell-based, human
Set-up: RFU PODN (11730768_x_at) / Fold change /veh PODN (11730768_x_at) / RFU LINC00158 (11744669_a_at) / Fold change /veh LINC00158 (11744669_a_at) / RFU DUSP10 (11751237_a_at) / Fold change /veh DUSP10 (11751237_a_at) / RFU ID3 (11757404_x_at) / Fold change /veh ID3 (11757404_x_at) / RFU PLEKHG5 (11737974_s_at) / Fold change /veh PLEKHG5 (11737974_s_at) / RFU LRRC4B (11730491_at) / Fold change /veh LRRC4B (11730491_at) / RFU GIMAP4 (11747438_a_at) / Fold change /veh GIMAP4 (11747438_a_at) / RFU KRT8 (11758183_x_at) / Fold change /veh KRT8 (11758183_x_at) / RFU CNN1 (11734310_a_at) / Fold change /veh CNN1 (11734310_a_at) / RFU VPS37D (11726825_at) / Fold change /veh VPS37D (11726825_at) / RFU C10orf10 (11716522_x_at) / Fold change /veh C10orf10 (11716522_x_at) / RFU KIR2DL2 /// KIR2DL4 /// KIR2DL5A /// KIR2DL5B /// KIR2DS1 /// KIR2DS2 /// KIR2DS3 /// KIR2DS4 /// KIR3DL3 /// KIR3DL3 /// KIR3DS1 (11738374_at) / Fold change /veh KIR2DL2 /// KIR2DL4 /// KIR2DL5A /// KIR2DL5B /// KIR2DS1 /// KIR2DS2 /// KIR2DS3 /// KIR2DS4 /// KIR3DL3 /// KIR3DL3 /// KIR3DS1 (11738374_at) / RFU C1QL1 (11718748_at) / Fold change /veh C1QL1 (11718748_at) / RFU TMPRSS4 (11747572_a_at) / Fold change /veh TMPRSS4 (11747572_a_at) / RFU HAMP (11756126_x_at) / Fold change /veh HAMP (11756126_x_at) / RFU RNFT2 (11725882_a_at) / Fold change /veh RNFT2 (11725882_a_at) / RFU NR4A2 (11747474_a_at) / Fold change /veh NR4A2 (11747474_a_at) / RFU ABCC12 (11746883_a_at) / Fold change /veh ABCC12 (11746883_a_at) / RFU TMEM136 (11760407_x_at) / Fold change /veh TMEM136 (11760407_x_at) / RFU CLDN22 /// WWC2 (11732394_at) / Fold change /veh CLDN22 /// WWC2 (11732394_at) / RFU HLA-DPB1 (11760878_x_at) / Fold change /veh HLA-DPB1 (11760878_x_at) / RFU SPINT1 (11716480_a_at) / Fold change /veh SPINT1 (11716480_a_at) / RFU GAP43 (11754022_s_at) / Fold change /veh GAP43 (11754022_s_at) / RFU A4GNT (11735810_at) / Fold change /veh A4GNT (11735810_at) / RFU PRB3 (11715151_x_at) / Fold change /veh PRB3 (11715151_x_at) / RFU TUBB4B (11761932_at) / Fold change /veh TUBB4B (11761932_at) / RFU CAPN14 (11732068_a_at) / Fold change /veh CAPN14 (11732068_a_at) / RFU TMCC2 (11721928_a_at) / Fold change /veh TMCC2 (11721928_a_at) / RFU IRGQ (11745062_a_at) / Fold change /veh IRGQ (11745062_a_at) / RFU FAM174B (11720279_a_at) / Fold change /veh FAM174B (11720279_a_at) / RFU TMPRSS4 (11748680_a_at) / Fold change /veh TMPRSS4 (11748680_a_at) / RFU FAM212B (11763350_a_at) / Fold change /veh FAM212B (11763350_a_at) / RFU PLEKHG5 (11743358_a_at) / Fold change /veh PLEKHG5 (11743358_a_at) / RFU ZSCAN30 (11745921_a_at) / Fold change /veh ZSCAN30 (11745921_a_at) / RFU CMKLR1 (11741424_a_at) / Fold change /veh CMKLR1 (11741424_a_at) / RFU LOC101060620 /// MAPK8IP1 (11723275_at) / Fold change /veh LOC101060620 /// MAPK8IP1 (11723275_at) / RFU SPTSSB (11747773_x_at) / Fold change /veh SPTSSB (11747773_x_at) / RFU PRSS12 (11739890_at) / Fold change /veh PRSS12 (11739890_at) / RFU BIN1 (11741810_x_at) / Fold change /veh BIN1 (11741810_x_at) / RFU WNT11 (11732464_a_at) / Fold change /veh WNT11 (11732464_a_at) / RFU C10orf10 (11716521_a_at) / Fold change /veh C10orf10 (11716521_a_at) / RFU C5orf56 (11738089_at) / Fold change /veh C5orf56 (11738089_at) / RFU CYB561 (11721691_x_at) / Fold change /veh CYB561 (11721691_x_at) / RFU ANKRD19P (11752326_a_at) / Fold change /veh ANKRD19P (11752326_a_at) / RFU OR2T12 /// OR2T33 /// OR2T8 (11738714_s_at) / Fold change /veh OR2T12 /// OR2T33 /// OR2T8 (11738714_s_at) / RFU VCAN (11748164_a_at) / Fold change /veh VCAN (11748164_a_at) / RFU JSRP1 (11732532_at) / Fold change /veh JSRP1 (11732532_at) / RFU KRTAP10-11 (11738290_x_at) / Fold change /veh KRTAP10-11 (11738290_x_at) / RFU MYO3A (11730013_a_at) / Fold change /veh MYO3A (11730013_a_at) / RFU EBF3 (11725865_a_at) / Fold change /veh EBF3 (11725865_a_at) / RFU CAMK2N1 (11719241_x_at) / Fold change /veh CAMK2N1 (11719241_x_at) / RFU C5orf56 (11738088_a_at) / Fold change /veh C5orf56 (11738088_a_at) / RFU OLFML3 (11715873_a_at) / Fold change /veh OLFML3 (11715873_a_at) / RFU LOC100653217 /// NTM (11731650_a_at) / Fold change /veh LOC100653217 /// NTM (11731650_a_at) / RFU MAPK11 (11762145_a_at) / Fold change /veh MAPK11 (11762145_a_at) / RFU FIZ1 (11724087_x_at) / Fold change /veh FIZ1 (11724087_x_at) / RFU OASL (11726364_x_at) / Fold change /veh OASL (11726364_x_at) / RFU SOX15 (11748057_x_at) / Fold change /veh SOX15 (11748057_x_at) / RFU CD79A (11719716_a_at) / Fold change /veh CD79A (11719716_a_at) / RFU HIST1H1D (11736915_at) / Fold change /veh HIST1H1D (11736915_at) / RFU CASKIN2 (11723855_a_at) / Fold change /veh CASKIN2 (11723855_a_at) / RFU LOC730098 (11760151_x_at) / Fold change /veh LOC730098 (11760151_x_at) / RFU OR4N2 (11742367_at) / Fold change /veh OR4N2 (11742367_at) / RFU PRRT2 (11749266_a_at) / Fold change /veh PRRT2 (11749266_a_at) / RFU SNX32 (11753110_a_at) / Fold change /veh SNX32 (11753110_a_at) / RFU CDHR5 (11726645_a_at) / Fold change /veh CDHR5 (11726645_a_at) / RFU RCAN1 (11760418_a_at) / Fold change /veh RCAN1 (11760418_a_at) / RFU FAM167A (11723789_a_at) / Fold change /veh FAM167A (11723789_a_at) / RFU FAM26E (11764081_at) / Fold change /veh FAM26E (11764081_at) / RFU ISYNA1 (11749810_s_at) / Fold change /veh ISYNA1 (11749810_s_at) / RFU ACY1 (11761880_at) / Fold change /veh ACY1 (11761880_at) / RFU 11764098_at / Fold change /veh 11764098_at / RFU SAMD14 (11745864_x_at) / Fold change /veh SAMD14 (11745864_x_at) / RFU NPB (11741838_a_at) / Fold change /veh NPB (11741838_a_at) / RFU TMPRSS6 (11731388_a_at) / Fold change /veh TMPRSS6 (11731388_a_at) / RFU KRTAP10-2 (11738614_at) / Fold change /veh KRTAP10-2 (11738614_at) / RFU ARHGAP8 /// PRR5-ARHGAP8 (11727945_x_at) / Fold change /veh ARHGAP8 /// PRR5-ARHGAP8 (11727945_x_at) / RFU KRTAP5-7 /// NADSYN1 (11734609_at) / Fold change /veh KRTAP5-7 /// NADSYN1 (11734609_at) / RFU RASL12 (11751679_a_at) / Fold change /veh RASL12 (11751679_a_at) / RFU CDKN2B (11736163_a_at) / Fold change /veh CDKN2B (11736163_a_at) / RFU PRF1 (11729649_at) / Fold change /veh PRF1 (11729649_at) / RFU, ZNF638 /// ZNF638-IT1 / Fold change vs veh, ZNF638 /// ZNF638-IT1 / RFU, PANK3 / Fold change vs veh, PANK3 / RFU, SH3YL1 / Fold change vs veh, SH3YL1 / RFU, ZEB2 / Fold change vs veh, ZEB2 / RFU, NRIP1 / Fold change vs veh, NRIP1 / RFU, PTTG1IP / Fold change vs veh, PTTG1IP / RFU, CAPN2 / Fold change vs veh, CAPN2 / RFU, MED14 / Fold change vs veh, MED14 / RFU, SNORA58 / Fold change vs veh, SNORA58 / RFU, C1orf63 / Fold change vs veh, C1orf63 / RFU, LRRFIP1 / Fold change vs veh, LRRFIP1 / RFU, NDUFAF7 / Fold change vs veh, NDUFAF7 / RFU, SLC12A2 / Fold change vs veh, SLC12A2 / RFU, IBTK / Fold change vs veh, IBTK / RFU, ESF1 / Fold change vs veh, ESF1 / Fold change vs veh, TMEM50B / RFU, TAOK1 / Fold change vs veh, TAOK1 / RFU, ACBD3 / Fold change vs veh, ACBD3 / RFU, TMA16 / Fold change vs veh, TMA16 / RFU, RWDD3 / Fold change vs veh, RWDD3 / RFU, BCAT1 / Fold change vs veh, BCAT1 / RFU, EDEM3 / Fold change vs veh, EDEM3 / RFU, TMEM33 / Fold change vs veh, TMEM33 / RFU, WDR75 / Fold change vs veh, WDR75 / RFU, AHCTF1 / Fold change vs veh, AHCTF1 / RFU, TFRC / Fold change vs veh, TFRC / RFU, ZDHHC17 / Fold change vs veh, ZDHHC17 / RFU, NOM1 / Fold change vs veh, NOM1 / RFU, ARL8B / Fold change vs veh, ARL8B / RFU, ZBTB11 / Fold change vs veh, ZBTB11 / RFU, TAMM41 / Fold change vs veh, TAMM41 / RFU, KIAA1704 /// LOC100996395 / Fold change vs veh, KIAA1704 /// LOC100996395 / RFU, ING1 / Fold change vs veh, ING1 / RFU, TRMT61B / Fold change vs veh, TRMT61B / RFU, FUBP3 / Fold change vs veh, FUBP3 / RFU, TP53 / Fold change vs veh, TP53 / RFU, TNKS2 / Fold change vs veh, TNKS2 / RFU, ZFP14 / Fold change vs veh, ZFP14 / RFU, ACTR2 / Fold change vs veh, ACTR2 / RFU, PPP3R1 / Fold change vs veh, PPP3R1 / RFU, PIK3R1 / Fold change vs veh, PIK3R1 / RFU, HNRNPA1 / Fold change vs veh, HNRNPA1 / RFU, RNF170 / Fold change vs veh, RNF170 / RFU, ZNF28 / Fold change vs veh, ZNF28 / RFU, RNGTT / Fold change vs veh, RNGTT / RFU, OGT / Fold change vs veh, OGT / RFU, BRD1 / Fold change vs veh, BRD1 / RFU, MARS / Fold change vs veh, MARS / RFU, ZNF655 / Fold change vs veh, ZNF655 / RFU, FAHD1 / Fold change vs veh, FAHD1 / RFU, BDP1 / Fold change vs veh, BDP1 / RFU, LRRCC1 / Fold change vs veh, LRRCC1 / RFU, ARID1A / Fold change vs veh, ARID1A / RFU, ZNF146 / Fold change vs veh, ZNF146 / RFU, ZNF330 / Fold change vs veh, ZNF330 / RFU, GPN3 / Fold change vs veh, GPN3 / RFU, C9orf123 / Fold change vs veh, C9orf123 / RFU, N4BP2L2 / Fold change vs veh, N4BP2L2 / RFU, ARFIP1 / Fold change vs veh, ARFIP1 / RFU, FAM179B / Fold change vs veh, FAM179B / RFU, BCL10 / Fold change vs veh, BCL10 / RFU, UHRF1BP1L / Fold change vs veh, UHRF1BP1L / RFU, BET1 / Fold change vs veh, BET1 / RFU, CNOT2 / Fold change vs veh, CNOT2 / RFU, ZNF268 / Fold change vs veh, ZNF268 / Fold change vs veh, ZNF507 / RFU, DGCR2 / Fold change vs veh, DGCR2 / RFU, WDSUB1 / Fold change vs veh, WDSUB1 / Fold change vs veh, HSP90B1 /// MIR3652 / RFU, ADSS / Fold change vs veh, ADSS / RFU, GK / Fold change vs veh, GK / RFU, ZNF148 / Fold change vs veh, ZNF148 / RFU, TAF9 / Fold change vs veh, TAF9 / RFU, SLC1A5 / Fold change vs veh, SLC1A5 / RFU, SLMO2 / Fold change vs veh, SLMO2 / RFU, ABCC4 / Fold change vs veh, ABCC4 / RFU, LOC101060439 /// RAP1B / Fold change vs veh, LOC101060439 /// RAP1B / RFU, RFX7 / Fold change vs veh, RFX7 / RFU, GTPBP10 / Fold change vs veh, GTPBP10 / RFU, CNEP1R1 / Fold change vs veh, CNEP1R1 / RFU, BIVM-ERCC5 /// ERCC5 / Fold change vs veh, BIVM-ERCC5 /// ERCC5 / RFU, ILF3 / Fold change vs veh, ILF3 / RFU 11762660_at / Fold change /veh 11762660_at / RFU VCAN (11757783_s_at) / Fold change /veh VCAN (11757783_s_at) / RFU DDX43 (11728927_at) / Fold change /veh DDX43 (11728927_at) / RFU KRT8 (11758188_x_at) / Fold change /veh KRT8 (11758188_x_at) / RFU NKD1 (11759106_at) / Fold change /veh NKD1 (11759106_at) / RFU SRD5A1 (11742802_a_at) / Fold change /veh SRD5A1 (11742802_a_at) / RFU TPSAB1 /// TPSB2 (11721975_s_at) / Fold change /veh TPSAB1 /// TPSB2 (11721975_s_at) / RFU GSTM3 (11746129_a_at) / Fold change /veh GSTM3 (11746129_a_at) / RFU IL23R (11737362_x_at) / Fold change /veh IL23R (11737362_x_at) / RFU TMEM51 (11727254_a_at) / Fold change /veh TMEM51 (11727254_a_at) / RFU PIWIL2 (11732686_x_at) / Fold change /veh PIWIL2 (11732686_x_at) / RFU ORM1 (11744905_x_at) / Fold change /veh ORM1 (11744905_x_at) / RFU CCDC152 (11743942_at) / Fold change /veh CCDC152 (11743942_at) / RFU ECM1 (11717891_a_at) / Fold change /veh ECM1 (11717891_a_at) / RFU IL23R (11748794_a_at) / Fold change /veh IL23R (11748794_a_at) / RFU TNFAIP8L3 (11732012_x_at) / Fold change /veh TNFAIP8L3 (11732012_x_at) / RFU MBOAT4 (11741988_at) / Fold change /veh MBOAT4 (11741988_at) / RFU 11764193_at / Fold change /veh 11764193_at / RFU TMEM53 (11763286_at) / Fold change /veh TMEM53 (11763286_at) / RFU MAGEB2 (11727129_at) / Fold change /veh MAGEB2 (11727129_at) / RFU TMEM200A (11744735_a_at) / Fold change /veh TMEM200A (11744735_a_at) / RFU CCDC152 (11751479_a_at) / Fold change /veh CCDC152 (11751479_a_at) / RFU FAM211A (11726209_a_at) / Fold change /veh FAM211A (11726209_a_at) / RFU RGS16 (11746705_a_at) / Fold change /veh RGS16 (11746705_a_at) / RFU VCAN (11755009_s_at) / Fold change /veh VCAN (11755009_s_at) / RFU RHOB (11743442_s_at) / Fold change /veh RHOB (11743442_s_at) / RFU RGS16 (11720943_a_at) / Fold change /veh RGS16 (11720943_a_at) / RFU RGS16 (11720944_at) / Fold change /veh RGS16 (11720944_at) / RFU, VPS4B / Fold change vs veh, VPS4B / RFU, CREB1 / Fold change vs veh, CREB1 / RFU, DNAJC13 / Fold change vs veh, DNAJC13 / RFU, GNAQ / Fold change vs veh, GNAQ / RFU, CDK5R1 / Fold change vs veh, CDK5R1 / RFU, ZRANB3 / Fold change vs veh, ZRANB3 / RFU, CUL4A / Fold change vs veh, CUL4A / RFU, CCNY / Fold change vs veh, CCNY / RFU, UFL1 / Fold change vs veh, UFL1 / RFU, COG3 / Fold change vs veh, COG3 / RFU, DIAPH2 / Fold change vs veh, DIAPH2 / RFU, SKA2 / Fold change vs veh, SKA2 / RFU, AFF3 / Fold change vs veh, AFF3 / RFU, LMF1 / Fold change vs veh, LMF1 / RFU, IPO11 / Fold change vs veh, IPO11 / RFU, DFFB / Fold change vs veh, DFFB / RFU, FOXP1 / Fold change vs veh, FOXP1 / RFU, CARD8 / Fold change vs veh, CARD8 / RFU, STRN3 / Fold change vs veh, STRN3 / RFU, ADK / Fold change vs veh, ADK / RFU, RASSF2 / Fold change vs veh, RASSF2 / RFU, WIPF1 / Fold change vs veh, WIPF1 / RFU, LARP1B / Fold change vs veh, LARP1B / RFU, RASA1 / Fold change vs veh, RASA1 / RFU, RB1 / Fold change vs veh, RB1 / RFU, PPFIA1 / Fold change vs veh, PPFIA1 / RFU, MAT2A / Fold change vs veh, MAT2A / RFU, CCT5 / Fold change vs veh, CCT5 / RFU, WDR92 / Fold change vs veh, WDR92 / RFU, CUX1 / Fold change vs veh, CUX1 / RFU, TTC7A / Fold change vs veh, TTC7A / RFU, TMEM135 / Fold change vs veh, TMEM135 / RFU, DEPTOR / Fold change vs veh, DEPTOR / RFU, CPM / Fold change vs veh, CPM / RFU, DNAJB6 / Fold change vs veh, DNAJB6 / RFU, CACNA2D3 / Fold change vs veh, CACNA2D3 / RFU, DTX4 / Fold change vs veh, DTX4 / RFU, TFCP2 / Fold change vs veh, TFCP2 / RFU, GMCL1 /// GMCL1P1 / Fold change vs veh, GMCL1 /// GMCL1P1 / RFU, AEBP2 / Fold change vs veh, AEBP2 / RFU, SNHG1 /// SNORD22 /// SNORD25 /// SNORD26 /// SNORD27 /// SNORD28 /// SNORD29 /// SNORD31 / Fold change vs veh, SNHG1 /// SNORD22 /// SNORD25 /// SNORD26 /// SNORD27 /// SNORD28 /// SNORD29 /// SNORD31 / Fold change (Aza/veh), C12orf56 (ProbeSet 11735607_a_at) / Fold change (ACY-1035/veh), C12orf56 (ProbeSet 11735607_a_at) / Fold change (Aza/veh), FGFR1OP (ProbeSet 11751329_s_at) / Fold change (ACY-1035/veh), FGFR1OP (ProbeSet 11751329_s_at) / Fold change (Aza/veh), VPS36 (ProbeSet 11739960_a_at) / Fold change (ACY-1035/veh), VPS36 (ProbeSet 11739960_a_at) / RFU SYPL1 (11715823_x_at) / Fold change /veh SYPL1 (11715823_x_at) / RFU IGFBP7 (11715501_s_at) / Fold change /veh IGFBP7 (11715501_s_at) / RFU REEP3 (11722064_at) / Fold change /veh REEP3 (11722064_at) / RFU IGLL1 (11728026_x_at) / Fold change /veh IGLL1 (11728026_x_at): dose or concentration left out as unconfirmed
Settings: MV-4-11 cells, 48 hours

Nc1ncn([C@@H]2O[C@H](CO)[C@@H](O)[C@H]2O)c(=O)n1 [azacitidine]
Fold change /veh VCAN (11748164_a_at): 1.17

Source: article PMC5218480 (PLoS ONE, 2017)
